From PMC6906431, “Selective small molecule PARG inhibitor causes replication fork stalling and cancer cell death” (Nature Communications, 2019)
Several values for one entry are separate records, joined by “and”; a condition that tells them apart may be missing. Equal values may be shown once.

Columns and labels:
MDA-MB-231 cells [1] = assay: Clonogenic survival assay; assay type: cell-based, human; conditions: for colony count (clonogenic survival, raw replicate data, Supplementary Figure 8): MDA-MB-231
Procedure: (§1) Fig. 6 Selective inhibition of PARG by xanthine derivative JA2131. a Clonogenic survival assays of PC3, MDA-MB-231, and MCF-7 cells treated with PARGi. Cells were treated with either DMSO or 10 µM JA2131 for 2 h, irradiated with 3 Gy (MDA-MB-231 and MCF-7), 7 Gy (PC3) IR and grown for ~2 weeks, then colonies were fixed with methanol and stained with crystal violet. The results of three independent experiments are shown. Error bars = the standard error of the mean (SEM). b dose-response of JA2131 in MDA-MB-231 cells with and without IR. Cells were treated with designated concentrations of JA2131 for 2 h and then either left untreated or exposed to 3 Gy IR and allowed to recover for 1 h before lysis. Total protein was immunoblotted with anti-PAR antibody (upper panel), stripped and reprobed with anti-PCNA as a loading control. c MDA-MB-231 cells with stable scrambled shRNA (WT) or stable PARG shRNA, knockdown (KD), were treated with 5 μM JA2131 for 2 h, lysed and then total lysates were immunoblotted for anti-PAR (upper panel) followed by anti-PARG (upper middle panel), anti-PARP1 (lower middle panel) and anti-actin (bottom panel) antibody. […] Stable cells with scramble shRNA (control) and shPARG (PARG-KD) cells were treated with an increasing concentration of JA2131 for growth inhibitory IC50 determination. The data was normalized against 100% survival at the lowest inhibitor concentration. Error bars show the percent coefficient of variation. Equivalent concentrations of DMSO were used as a negative control. e The cytotoxicity of JA2131 along with PDD, Veliparib and Doxorubicin against MRC-5 cells. Error bars show the percent coefficient of variation. f CETSA for in-cell JA2131 target engagement. Normalized anti-PARG western blot intensities of three independent experiments were fitted as above and the estimated aggregation temperature (Tagg) is shown in the tabulated insert. Source Data are provided as a Source Data file.
(§2) PC3, MDA-MB-231 cells were maintained in RPMI 1640, MCF-7 cells in Eagle’s Minimum Essential Medium (EMEM), MRC-5 cells in Eagle’s Minimum Essential Medium and Hela and U2OS cells in Dulbecco’s modified Eagle’s high glucose medium (DMEM) supplemented with 10% (vol/vol) fetal bovine serum (FBS) and 1% antibiotic/antimycotic (Lonza) in a humidified incubator with 10% CO2. All cell lines were purchased from ATCC and regularly checked for mycoplasma and cell authentication. SUM 149PT cells were cultured in F-12 Hams (Gibco) supplemented with 5% fetal bovine serum, insulin, and hydrocortisone. Colony formation assays were carried out in 6-well plates, 500 cells were used per well and following designated treatment, and colonies were grown for 2 weeks. Cells were fixed with methanol (100%), stained with crystal violet and analyzed using a GelCount instrument (Oxford Optronix Ltd). Crystal Violet C6158 was purchased from Sigma. PARG knockdown cells were generated by infecting MDA-MB-231 cells with shPARG lentiviral particles (sc-106355-V, Santa Cruz Biotechnology), which contain a pool of three shRNA plasmids. After 24 h infection, 3 µg/ml puromycin (Invitrogen) was added and antibiotic-resistant cells were further expanded and used for experimentation. Sequence-1; hairpin sequence: […], sense: […]tt, Antisense: […]tt. Sequence-2; hairpin sequence, […]-[…], sense: […]tt, antisense: […]tt. Sequence-3; hairpin sequence: […]-[…], sense: […]tt, antisense: […]-GGUUUCCtt. Control cells were generated using the same process except that scramble lentiviral particles with scrambled sequences were used (sc-108080).
(§3) Supplementary Fig. 8: Clonogenic survival of cells in the presence of PARGi and PARPi (a)
(§4) Clonogenic survival of PC3 cells in response to indicated compounds. ( b) Clonogenic survival of
(§5) MDA-MB-231 cells in response to i ndicated compounds. (c) Clonogenic survival of MCF -7 cells
(§6) in response to indicated compounds. […]

PC3 cells [2] = assay: Clonogenic survival assay; assay type: cell-based, human; conditions: for surviving colonies, Replicates: two weeks
Procedure: as §1, §2, §3, §4, §5, §6

PARG in PC3 cells = target: T1, PARG in PC3 cells (Homo sapiens, UniProt Q86W56); assay: Cellular thermal shift assay (CETSA); assay type: cell-based; conditions: 10 μM JA2131
T1 construct: endogenous in cells; host or cells: PC3
T1 sequence (Q86W56 whole entry): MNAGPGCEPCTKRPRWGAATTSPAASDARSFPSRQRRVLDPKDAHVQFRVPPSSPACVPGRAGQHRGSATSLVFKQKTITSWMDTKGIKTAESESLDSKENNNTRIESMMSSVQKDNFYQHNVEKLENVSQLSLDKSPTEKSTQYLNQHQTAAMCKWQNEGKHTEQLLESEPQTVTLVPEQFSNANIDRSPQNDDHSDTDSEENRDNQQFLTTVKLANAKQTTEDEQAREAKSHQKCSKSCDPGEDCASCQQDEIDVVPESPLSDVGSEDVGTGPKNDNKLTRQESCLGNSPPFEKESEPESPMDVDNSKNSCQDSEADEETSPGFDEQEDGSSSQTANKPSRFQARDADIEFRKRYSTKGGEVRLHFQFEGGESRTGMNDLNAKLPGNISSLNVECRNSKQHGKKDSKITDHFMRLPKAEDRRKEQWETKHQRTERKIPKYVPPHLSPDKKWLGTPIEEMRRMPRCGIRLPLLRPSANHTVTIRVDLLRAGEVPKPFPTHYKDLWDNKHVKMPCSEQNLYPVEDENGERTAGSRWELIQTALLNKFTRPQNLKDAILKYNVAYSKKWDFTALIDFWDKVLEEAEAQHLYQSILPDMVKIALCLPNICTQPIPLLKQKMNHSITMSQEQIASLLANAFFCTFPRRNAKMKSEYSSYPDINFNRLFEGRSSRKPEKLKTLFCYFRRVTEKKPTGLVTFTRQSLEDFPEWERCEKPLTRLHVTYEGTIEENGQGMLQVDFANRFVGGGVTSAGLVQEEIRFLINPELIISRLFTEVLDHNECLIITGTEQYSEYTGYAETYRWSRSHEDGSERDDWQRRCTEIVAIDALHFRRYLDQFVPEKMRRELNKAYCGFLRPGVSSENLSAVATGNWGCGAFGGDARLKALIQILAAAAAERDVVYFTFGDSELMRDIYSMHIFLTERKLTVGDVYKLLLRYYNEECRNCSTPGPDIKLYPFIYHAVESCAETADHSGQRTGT
Procedure: CETSA was performed as described by Molina et al.[44]. Briefly, PC3 cells were treated with 10 μM JA2131 or an equivalent volume of DMSO for 2 h, washed three times with PBS and extracted for total cell lysate. Ten percent glycerol was added to the samples before subjecting to heat. […] Then, samples were centrifuged at 14,000 rpm for 20 min at 4 °C. Supernatants were carefully removed and analyzed by western blotting analysis.
Supplementary Fig. 14: Representative CETSA western blots for PARG and PCNA. PC3 cells
treated with 10 µM JA2131 or DMSO were temperature shocked as described in Materials and […]
PCNA antibody. Anti -Histone H3 was used as loading control.
(1 picture or pasted object on this page, not shown here)

MDA-MB-231 cells [3] = assay: Clonogenic survival assay; assay type: cell-based, human; conditions: 10 µM JA2131 2 h; 3 Gy IR; ~2 weeks
[4] = Sulforhodamine B (SRB) cytotoxicity assay; conditions: human, PC3 cells, Viability; for viability at 72 h, 1.95 µM: log [concentration] μM 0.291; for viability at 72 h, 3.9 µM: log [concentration] μM 0.592; for viability at 72 h, 7.8 µM: log [concentration] μM 0.893; for viability at 72 h, 15.6 µM: log [concentration] μM 1.194; for viability at 72 h, 31.3 µM: log [concentration] μM 1.495; for viability at 72 h, 62.5 µM: log [concentration] μM 1.796; for viability at 72 h, 125 µM: log [concentration] μM 2.097; for viability at 72 h, 250 µM: log [concentration] μM 2.398; for viability at 72 h, 500 µM: log [concentration] μM 2.699; for viability at 72 h, 0.98 µM: log [concentration] μM -0.01; for viability at 72 h, 0.49 µM: log [concentration] μM -0.312; for viability at 72 h, 0.244 µM: log [concentration] μM -0.613
PC3 cells [5] = assay: Sulforhodamine B (SRB) cytotoxicity assay; conditions: Homo sapiens, PC-3, 72 h
[6] = 10 µM JA2131 2 h, 7 Gy IR, ~2 weeks

In the case of Cn1c(=S)c2[nH]c(SCCN3CCOCC3)nc2n(C)c1=O [JA2131], the “Surviving Fraction” value (MDA-MB-231 cells [1]; 10 µM JA2131 2 h, 3 Gy IR, ~2 weeks) is reported as 0.4526 and 0.3681 and 0.2687 and 0.3631, the “colony count (clonogenic survival, raw replicate data, Supplementary Figure 8)” value (from here on “colony count”) (MDA-MB-231 cells [1]; Experiment-1, replicates 1-6) is reported as 76 (2×) and 74 and 77 and 70 and 85 and the “colony count” value (MDA-MB-231 cells [1]; Experiment-2, replicates 1-6) is reported as 61 (3×) and 68 and 76 and 65. For the same molecule, the “colony count” value (MDA-MB-231 cells [1]; Experiment-3, replicates 1-6) was 34 and 25 and 20 and 47 and 33 and 35, the “Surviving Fraction” value (PC3 cells [2]; [6]) was 0.7713 and 0.7545 and 0.8277 and 0.7845 and the “clonogenic survival (Exp-1 to Exp-4)” value (PC3 cells [2]; [6]) was 77.1344 and 75.4495 and 82.7709 and 78.4516. For the same molecule, the “surviving colonies, Replicates” value (PC3 cells [2]; JA2131 0.5 uM) was 47 and 58 and 49 and 56 and 83 and 61, the “surviving colonies, Replicates” value (PC3 cells [2]; JA2131 1 uM) was 9 and 48 and 34 and 20 and 62 and 2 and the “surviving colonies, Replicates” value (PC3 cells [2]; JA2131 5 uM) was 1 and 29 and 2 (2×) and 24 and 0. For the same molecule, the “surviving colonies, Replicates” value (PC3 cells [2]; JA2131 10 uM) was 2 and 15 and 14 and 0 and 21 and 5, the “stabilization of PARG proteins in cells” value (PARG in PC3 cells) was 9 °C and the “Band intensities, anti-PARG” value (PARG in PC3 cells; Temperature 4 °C) was 100. For the same molecule, the “Band intensities, anti-PARG” value (PARG in PC3 cells; Temperature 51 °C) was 93.0607, the “Band intensities, anti-PARG” value (PARG in PC3 cells; Temperature 62 °C) was 68.3696 and the “Band intensities, anti-PARG” value (PARG in PC3 cells; Temperature 68 °C) was 57.8125. For the same molecule, the “Band intensities, anti-PARG” value (PARG in PC3 cells; Temperature 72 °C) was 44.7308, the “Band intensities, anti-PARG” value (PARG in PC3 cells; Temperature 77 °C) was 28.3012 and the “Band intensities, anti-PARG” value (PARG in PC3 cells; Temperature 85 °C) was 16.0619. The “clonogenic survival (Exp-1 to Exp-4)” value (MDA-MB-231 cells [3]) was 45.2569 and 36.8075 and 26.8698 and 36.3114, the viability at 72 h, 1.95 µM ([4]; +IR 7 Gy) was 104% and the viability at 72 h, 3.9 µM ([4]; +IR 7 Gy) was 99.5%. It also gave a viability at 72 h, 7.8 µM ([4]; +IR 7 Gy) of 103%, a viability at 72 h, 15.6 µM ([4]; +IR 7 Gy) of 96.6% and a viability at 72 h, 31.3 µM ([4]; +IR 7 Gy) of 76.7%. The viability at 72 h, 62.5 µM ([4]; +IR 7 Gy) was 32.5%, the viability at 72 h, 125 µM ([4]; +IR 7 Gy) was 13.6% and the viability at 72 h, 250 µM ([4]; +IR 7 Gy) was 16.8%. For the same molecule, the viability at 72 h, 500 µM ([4]; +IR 7 Gy) was 13%, the viability at 72 h, 0.98 µM ([4]; +IR 7 Gy) was 102% and the viability at 72 h, 0.49 µM ([4]; +IR 7 Gy) was 100%. It also gave a viability at 72 h, 0.244 µM ([4]; +IR 7 Gy) of 100%, a viability at 72 h, 1.95 µM ([4]; without IR) of 97.5% and a viability at 72 h, 3.9 µM ([4]; without IR) of 97.3%. It also gave a viability at 72 h, 7.8 µM ([4]; without IR) of 94.1%, a viability at 72 h, 15.6 µM ([4]; without IR) of 88.1% and a viability at 72 h, 31.3 µM ([4]; without IR) of 57.2%. It also gave a viability at 72 h, 62.5 µM ([4]; without IR) of 6.73%, a viability at 72 h, 125 µM ([4]; without IR) of 4.07% and a viability at 72 h, 250 µM ([4]; without IR) of 4.3%. For the same molecule, the viability at 72 h, 500 µM ([4]; without IR) was 4.21%, the viability at 72 h, 0.98 µM ([4]; without IR) was 99.2% and the viability at 72 h, 0.49 µM ([4]; without IR) was 98.7%. For the same molecule, the viability at 72 h, 0.244 µM ([4]; without IR) was 100%, the IC50 (PC3 cells [5]; with 7 Gy IR) was 41.6 ± 3 µM and the IC50 (PC3 cells [5]; without IR) was 33 ± 2.4 µM.
